# Results from article PMC9864514, “Evaluation of the Local Anesthetic Activity, Acute Toxicity, and Structure–Toxicity Relationship in Series of Synthesized 1-Aryltetrahydroisoquinoline Alkaloid Derivatives In Vivo and In Silico” (Molecules, 2023).
# “Also recorded” adds a separate entry of the source.
# Test system: not listed separately
# Assay: Acute toxicity and resorptive action in white mice, intragastric administration
# Type: in vivo
# Settings: mouse, in vivo, po, intragastric administration, N = 10, Litchfield–Wilcoxon
# Description: (§1) The acute toxicity and resorptive action were determined in white mice weighing 20–24 g by gradual oral administration at doses of 1–5000 mg/kg.
# (§2) The animals were kept under standard nursery conditions with a natural 12-h light-dark cycle, at an air temperature of 20 ± 2 °C. The animals had unlimited access to food and water. The experiments were performed in accordance with the International Convention for the Protection of Vertebrate Animals used for Experimental and Scientific Purposes (Strasbourg, 1986). Each substance was tested on 10 mice and LD50 was determined graphically by the well-known Litchfield–Wilcoxon method.
row,SMILES,LD50
1,"COc1cc2c(cc1OC)C(c1cccc(N)c1)NCC2 (stereo not shown) [Compound 4b, 1-(3′-Aminophenyl)-6,7-dimethoxy-1,2,3,4-tetrahydroisoquinoline]",750 mg/kg
2,"COc1ccc(C2NCCc3cc(OC)c(OC)cc32)cc1O (stereo not shown) [Compound 3c, 1-(3′-Hydroxy-4′-methoxyphenyl)-6,7-dimethoxy-1,2,3,4-tetrahydroisoquinoline]",980 mg/kg
3,"COc1cc2c(cc1OC)C(c1ccc(N(C)C)cc1)NCC2 (stereo not shown) [Compound 3q, 1-(4′-Dimethylaminophenyl)-6,7-dimethoxy-1,2,3,4-tetrahydroisoquinoline]",1250 mg/kg
4,"COc1cc2c(cc1OC)C(c1cc(Br)ccc1O)NCC2 (stereo not shown) [Compound 3f, 1-(5′-Bromo-2′-hydroxyphenyl)-6,7-dimethoxy-1,2,3,4-tetrahydroisoquinoline]",305 mg/kg
5,"COc1cc2c(cc1OC)C(c1ccc3c(c1)OCO3)NCC2 (stereo not shown) [Compound 3i, 1-(3′,4′-Methylenedioxyphenyl)-6,7-dimethoxy-1,2,3,4-tetrahydroisoquinoline]",280 mg/kg
6,"COc1cc2c(cc1OC)C(c1cc(Br)c(O)c(OC)c1)NCC2 (stereo not shown) [Compound 3l, 1-(5′-Bromo-4′-hydroxy-3′-methoxyphenyl)-6,7-dimethoxy-1,2,3,4-tetrahydroisoquinoline]",1560 mg/kg
7,"COc1cc2c(cc1OC)C(c1ccccc1OC)NCC2 (stereo not shown) [Compound 3p, 1-(2′-Methoxyphenyl)-6,7-dimethoxy-1,2,3,4-tetrahydroisoquinoline]",300 mg/kg
8,"COc1cc2c(cc1OC)C(c1ccc(N)cc1)NCC2 (stereo not shown) [Compound 4a, 1-(4′-Aminophenyl)-6,7-dimethoxy-1,2,3,4-tetrahydroisoquinoline]",1050 mg/kg
9,"COc1cc2c(cc1OC)C(c1cc3c(cc1Cl)OCO3)NCC2 (stereo not shown) [Compound 3k, 1-(4′,5′-Methylenedioxy-2′-chlorophenyl)-6,7-dimethoxy-1,2,3,4-tetrahydroisoquinoline]",520 mg/kg
10,"COc1cc2c(cc1OC)C(c1ccc(O)c(Br)c1)NCC2 (stereo not shown) [Compound 3e, 1-(3′-Bromo-4′-hydroxyphenyl)-6,7-dimethoxy-1,2,3,4-tetrahydroisoquinoline]",3850 mg/kg

# Test system: white mice
# Assay: as above
# Type: in vivo
# Settings: intragastric, relative to parent compound 3a
# Description: as §1, §2
row,SMILES,Decrease of acute toxicity compared with 3a
1,"COc1ccc(C2NCCc3cc(OC)c(OC)cc32)cc1O (stereo not shown) [Compound 3c, 1-(3′-Hydroxy-4′-methoxyphenyl)-6,7-dimethoxy-1,2,3,4-tetrahydroisoquinoline]",3.5 fold
2,"COc1cc2c(cc1OC)C(c1ccc(N(C)C)cc1)NCC2 (stereo not shown) [Compound 3q, 1-(4′-Dimethylaminophenyl)-6,7-dimethoxy-1,2,3,4-tetrahydroisoquinoline]",~4.5 fold
3,"COc1cc2c(cc1OC)C(c1cc(Br)ccc1O)NCC2 (stereo not shown) [Compound 3f, 1-(5′-Bromo-2′-hydroxyphenyl)-6,7-dimethoxy-1,2,3,4-tetrahydroisoquinoline]",did not result in a significant decrease of toxicity
4,"COc1cc2c(cc1OC)C(c1ccc3c(c1)OCO3)NCC2 (stereo not shown) [Compound 3i, 1-(3′,4′-Methylenedioxyphenyl)-6,7-dimethoxy-1,2,3,4-tetrahydroisoquinoline]",did not lead to a change in acute toxicity
5,"COc1cc2c(cc1OC)C(c1cc(Br)c(O)c(OC)c1)NCC2 (stereo not shown) [Compound 3l, 1-(5′-Bromo-4′-hydroxy-3′-methoxyphenyl)-6,7-dimethoxy-1,2,3,4-tetrahydroisoquinoline]",5.6 fold
6,"COc1cc2c(cc1OC)C(c1ccccc1OC)NCC2 (stereo not shown) [Compound 3p, 1-(2′-Methoxyphenyl)-6,7-dimethoxy-1,2,3,4-tetrahydroisoquinoline]",did not result in a significant decrease of toxicity
7,"COc1cc2c(cc1OC)C(c1ccc(N)cc1)NCC2 (stereo not shown) [Compound 4a, 1-(4′-Aminophenyl)-6,7-dimethoxy-1,2,3,4-tetrahydroisoquinoline]",3.75 fold
8,"COc1cc2c(cc1OC)C(c1cc3c(cc1Cl)OCO3)NCC2 (stereo not shown) [Compound 3k, 1-(4′,5′-Methylenedioxy-2′-chlorophenyl)-6,7-dimethoxy-1,2,3,4-tetrahydroisoquinoline]",1.86 fold
9,"COc1cc2c(cc1OC)C(c1ccc(O)c(Br)c1)NCC2 (stereo not shown) [Compound 3e, 1-(3′-Bromo-4′-hydroxyphenyl)-6,7-dimethoxy-1,2,3,4-tetrahydroisoquinoline]",13.75 fold

# Test system: rabbit eye cornea
# Assay: Local anesthetic activity, rabbit eye cornea terminal anesthesia test
# Type: in vivo
# Settings: rabbit corneal model, 1% aqueous solution
# Description: Local anesthetic activity was evaluated using the rabbit eye cornea terminal anesthesia test on 2.0–2.5 kg male chinchilla rabbits after introduction of total 0.4 mL (0.2 mL twice with an interval of 30 s) of 1.0 % solutions of the studied substances. Lidocaine was used as an etalon drug. Each substance was tested on three rabbits.
SMILES,Onset of Anesthesia,Total Duration of Anesthesia
"COc1cc2c(cc1OC)C(c1cccc(N)c1)NCC2 (stereo not shown) [Compound 4b, 1-(3′-Aminophenyl)-6,7-dimethoxy-1,2,3,4-tetrahydroisoquinoline]",3.0 ± 0.7 min,44.0 ± 4.1 min
"COc1ccc(C2NCCc3cc(OC)c(OC)cc32)cc1O (stereo not shown) [Compound 3c, 1-(3′-Hydroxy-4′-methoxyphenyl)-6,7-dimethoxy-1,2,3,4-tetrahydroisoquinoline]",3.0 ± 0.8 min,70.0 ± 4.5 min
"COc1cc2c(cc1OC)C(c1ccc(N(C)C)cc1)NCC2 (stereo not shown) [Compound 3q, 1-(4′-Dimethylaminophenyl)-6,7-dimethoxy-1,2,3,4-tetrahydroisoquinoline]",2.0 ± 0.6 min,45.0 ± 4.1 min
"COc1cc2c(cc1OC)C(c1cc(Br)ccc1O)NCC2 (stereo not shown) [Compound 3f, 1-(5′-Bromo-2′-hydroxyphenyl)-6,7-dimethoxy-1,2,3,4-tetrahydroisoquinoline]",1.0 ± 0.5 min,64.0 ± 3.8 min
"COc1cc2c(cc1OC)C(c1ccc3c(c1)OCO3)NCC2 (stereo not shown) [Compound 3i, 1-(3′,4′-Methylenedioxyphenyl)-6,7-dimethoxy-1,2,3,4-tetrahydroisoquinoline]",2.0 ± 0.4 min,57.0 ± 3.7 min
"COc1cc2c(cc1OC)C(c1cc(Br)c(O)c(OC)c1)NCC2 (stereo not shown) [Compound 3l, 1-(5′-Bromo-4′-hydroxy-3′-methoxyphenyl)-6,7-dimethoxy-1,2,3,4-tetrahydroisoquinoline]",5.0 ± 1.2 min,89.0 ± 3.0 min
"COc1cc2c(cc1OC)C(c1ccccc1OC)NCC2 (stereo not shown) [Compound 3p, 1-(2′-Methoxyphenyl)-6,7-dimethoxy-1,2,3,4-tetrahydroisoquinoline]",3.0 ± 0.8 min,67.0 ± 3.6 min
"COc1cc2c(cc1OC)C(c1ccc(N)cc1)NCC2 (stereo not shown) [Compound 4a, 1-(4′-Aminophenyl)-6,7-dimethoxy-1,2,3,4-tetrahydroisoquinoline]",2.0 ± 0.7 min,25.0 ± 4.0 min
"COc1cc2c(cc1OC)C(c1cc3c(cc1Cl)OCO3)NCC2 (stereo not shown) [Compound 3k, 1-(4′,5′-Methylenedioxy-2′-chlorophenyl)-6,7-dimethoxy-1,2,3,4-tetrahydroisoquinoline]",2.0 ± 1.2 min,43.0 ± 4.5 min
"COc1cc2c(cc1OC)C(c1ccc(O)c(Br)c1)NCC2 (stereo not shown) [Compound 3e, 1-(3′-Bromo-4′-hydroxyphenyl)-6,7-dimethoxy-1,2,3,4-tetrahydroisoquinoline]",5.0 ± 0.9 min,80.0 ± 3.2 min
"CCN(CC)CC(=O)Nc1c(C)cccc1C [Lidocaine, reference compound]",5.0 ± 0.5 min,52.7 ± 4.9 min

# Same assay, conditions: rabbit corneal model, 1% aqueous solution; percentage of the anesthetic activity of lidocaine (=100%)
row,SMILES,Duration of Complete Anesthesia
1,"COc1cc2c(cc1OC)C(c1cccc(N)c1)NCC2 (stereo not shown) [Compound 4b, 1-(3′-Aminophenyl)-6,7-dimethoxy-1,2,3,4-tetrahydroisoquinoline]",+0%
2,"COc1ccc(C2NCCc3cc(OC)c(OC)cc32)cc1O (stereo not shown) [Compound 3c, 1-(3′-Hydroxy-4′-methoxyphenyl)-6,7-dimethoxy-1,2,3,4-tetrahydroisoquinoline]",+40%
3,"COc1cc2c(cc1OC)C(c1ccc(N(C)C)cc1)NCC2 (stereo not shown) [Compound 3q, 1-(4′-Dimethylaminophenyl)-6,7-dimethoxy-1,2,3,4-tetrahydroisoquinoline]",+220%
4,"COc1cc2c(cc1OC)C(c1ccc3c(c1)OCO3)NCC2 (stereo not shown) [Compound 3i, 1-(3′,4′-Methylenedioxyphenyl)-6,7-dimethoxy-1,2,3,4-tetrahydroisoquinoline]",+80%
5,"COc1cc2c(cc1OC)C(c1cc(Br)c(O)c(OC)c1)NCC2 (stereo not shown) [Compound 3l, 1-(5′-Bromo-4′-hydroxy-3′-methoxyphenyl)-6,7-dimethoxy-1,2,3,4-tetrahydroisoquinoline]",+140%
6,"COc1cc2c(cc1OC)C(c1ccccc1OC)NCC2 (stereo not shown) [Compound 3p, 1-(2′-Methoxyphenyl)-6,7-dimethoxy-1,2,3,4-tetrahydroisoquinoline]",+300%
7,"COc1cc2c(cc1OC)C(c1ccc(N)cc1)NCC2 (stereo not shown) [Compound 4a, 1-(4′-Aminophenyl)-6,7-dimethoxy-1,2,3,4-tetrahydroisoquinoline]",+40%
8,"COc1cc2c(cc1OC)C(c1cc3c(cc1Cl)OCO3)NCC2 (stereo not shown) [Compound 3k, 1-(4′,5′-Methylenedioxy-2′-chlorophenyl)-6,7-dimethoxy-1,2,3,4-tetrahydroisoquinoline]",+90%
9,"COc1cc2c(cc1OC)C(c1ccc(O)c(Br)c1)NCC2 (stereo not shown) [Compound 3e, 1-(3′-Bromo-4′-hydroxyphenyl)-6,7-dimethoxy-1,2,3,4-tetrahydroisoquinoline]",+49%

# Same assay, conditions: rabbit corneal model, 1% concentration
row,SMILES,"Duration of complete anesthesia, times longer than lidocaine"
1,"COc1cc2c(cc1OC)C(c1ccc(N(C)C)cc1)NCC2 (stereo not shown) [Compound 3q, 1-(4′-Dimethylaminophenyl)-6,7-dimethoxy-1,2,3,4-tetrahydroisoquinoline]",2.2 times
2,"COc1cc2c(cc1OC)C(c1cc(Br)ccc1O)NCC2 (stereo not shown) [Compound 3f, 1-(5′-Bromo-2′-hydroxyphenyl)-6,7-dimethoxy-1,2,3,4-tetrahydroisoquinoline]",1.6 times
3,"COc1cc2c(cc1OC)C(c1cc(Br)c(O)c(OC)c1)NCC2 (stereo not shown) [Compound 3l, 1-(5′-Bromo-4′-hydroxy-3′-methoxyphenyl)-6,7-dimethoxy-1,2,3,4-tetrahydroisoquinoline]",1.4 times
4,"COc1cc2c(cc1OC)C(c1ccccc1OC)NCC2 (stereo not shown) [Compound 3p, 1-(2′-Methoxyphenyl)-6,7-dimethoxy-1,2,3,4-tetrahydroisoquinoline]",3.0 times

# Same assay, conditions: rabbit eyes, concentrations studied
row,SMILES,Local irritant effects on rabbit eyes
1,"COc1cc2c(cc1OC)C(c1ccc(N)cc1)NCC2 (stereo not shown) [Compound 4a, 1-(4′-Aminophenyl)-6,7-dimethoxy-1,2,3,4-tetrahydroisoquinoline]",eye irritation and redness; also recorded: reversible irritation and redness of the eyes
